Assay results from US10053434B2, “Histone deacetylase inhibitors and compositions and methods of use thereof” (CHDI Foundation, Inc., priority 2015, dated 2018).
Counter-ions that a name gives are not always drawn.

Assays:
[1] = molecular target: human catalytic domain HDAC4 protein (amino acids 648-1032) (Homo sapiens (Human), UniProt P56524); assay: HDAC4 catalytic domain enzymatic activity, fluorogenic substrate Boc-Lys(TFA)-AMC; conditions: read-out: HDAC4 Biochemical IC50
Excerpt: Example 25: Analysis of Inhibition of HDAC4 with Class IIa Histone Deacetylase (HDAC) Inhibitors
The potency of Class IIa Histone Deacetylase (HDAC) inhibitors was quantified by measuring the Histone Deacetylase 4 (HDAC4) catalytic domain enzymatic activity using the fluorogenic substrate, Boc-Lys(TFA)-AMC. The substrate was deacetylated to Boc-Lys-AMC by HDAC4. […] The fluorescence of the sample was directly related to the histone deacetylase activity in the sample.
(§1) Serially Dilute HDAC Inhibitor Compounds.
(§2) Serial dilutions of the HDAC inhibitors and control reference compound (1-(5-(3-((4-(1,3,4-oxadiazol-2-yl)phenoxy)methyl)-1,2,4-oxadiazol-5-yl)thiophen-2-yl)-2,2,2-trifluoroethanone) were made by first resuspending the lyophilized compound to a final concentration of 10 mM in 100% dimethyl sulfoxide (DMSO). Stocks of 60 μL aliquots of the 10 mM compound in DMSO were prepared and stored at −20° C. From one stock aliquot of each tested compound and the reference compound, a 16-point serial dilution was prepared according to Table 1 using a 125 μL 16-channel Matrix multi-channel pipette (Matrix Technologies Ltd).
2 μL (200×) of each diluted solution and each control (full activity: 100% DMSO alone or full inhibition 1 mM) was stamped into V-bottomed polypropylene 384-well compound plates using either the Bravo (384-well head from Agilent) or 12.5 μL 16-channel Matrix multi-channel pipette (Matrix Technologies Ltd). Each well with the 200× compound solution was diluted 1:20 by the addition of 38 μL assay buffer+DMSO (10.5% DMSO, 45 mM Tris-HCl, 123 mM NaCl, 2.4 mM KCl, and 0.9 mM MgCl2 at pH 8.0 and equilibrated to r.t.).
Prepare HDAC4 Catalytic Domain Enzyme (0.2 μg/mL).
The HDAC4 catalytic domain enzyme was human catalytic domain HDAC4 protein (amino acids 648-1032) with a C-terminal 6× histidine tag, produced by BioFocus. A working solution of enzyme was prepared from a […] stock aliquot of HDAC4 catalytic domain (thawed on ice) diluted to 0.2 μg/mL with assay buffer (50 mM Tris-HCl, 137 mM NaCl, 2.7 mM KCl, and 1 mM MgCl2 at pH 8 and equilibrated to r.t.) just prior to the addition of the enzyme to the assay.
Prepare 5× (50 μM) Boc-Lys(TFA)-AMC Substrate.
5× (50 μM) substrate was prepared just prior to the addition to the assay. A 1 mM substrate stock was made by diluting a 100 mM Boc-Lys(TFA)-AMC in DMSO solution 1:100 by adding it drop-wise to assay buffer (equilibrated to r.t.) while vortexing at slow speed to prevent precipitation. The 5× substrate was prepared by diluting the 1 mM substrate solution 1:20 by adding it drop-wise to assay buffer (equilibrated to r.t.) while vortexing at slow speed to prevent precipitation.
Prepare 3× (30 μM) Developer/Stop Solution.
3× (30 μM) Developer/Stop Solution was prepared just prior to addition to the plate by diluting a stock solution of 10 mM reference compound 1:333 in 25 mg/mL trypsin (PAA Laboratories Ltd.) equilibrated to r.t.
5 μL of each solution of 1:20 diluted compound from above was transferred to a clear bottomed, black, 384-well assay plate using the Bravo or the Janus (384-well MDT head from Perkin Elmer). Using a 16-channel Matrix multi-channel pipette, 35 μL of the working solution of HDAC4 catalytic domain enzyme (0.2 μg/mL in assay buffer) was transferred to the assay plate. The assay was then started by adding 10 μL of 5× (50 μM) substrate to the assay plates using either the Bravo, Janus or 16-channel Matrix multi-channel pipette. The assay plate was then shaken for two minutes on an orbital shaker at 900 rpm (rotations per minute). Next the plate was incubated for 15 minutes at 37° C. The reaction was stopped by adding 25 μL of 3× (30 μM) developer/stop solution to the assay plates using either the Bravo, Janus or a 16-channel Matrix multi-channel pipette. Assay plates were then shaken for 5 minutes on an orbital shaker at 1200 rpm. Next, the assay plates were incubated at 37° C. for 1 hour in a tissue culture incubator. […]

[2] = tested on: Cellular Class IIa HDAC activity; assay: Inhibition of cellular Class IIa HDAC activity; Cell (Lys-TFA) substrate, Jurkat E6-1 cells; format: cell-based; conditions: Boc-Lys(TFA)-AMC substrate
Excerpt: Example 29: Analysis of Inhibition of Cellular Class IIa HDAC Activity with Class IIa Histone Deacetylase (HDAC) Inhibitors; Cell (Lys-TFA) Substrate
(§3) The potency of Class IIa Histone Deacetylase (HDAC) inhibitors was quantified by measuring the cellular histone deacetylase enzymatic activity using the fluorogenic substrate, Boc-Lys(TFA)-AMC. After penetration in Jurkat E6-1 cells, the substrate was deacetylated to Boc-Lys-AMC. After cell lysis and cleavage by trypsin, the fluorophore AMC was released from the deacetylated substrate only. The fluorescence of the sample was directly related to the histone deacetylase activity in the sample.
Jurkat E6.1 Cell Culture and Plating.
(§4) Jurkat E6.1 cells were cultured according to standard cell culture protocols in Jurkat E6.1 Growth Media (RPMI without phenol red, 10% FBS, 10 mM HEPES, and 1 mM Sodium Pyruvate). Jurkat E6.1 cells were counted using a Coulter Counter and resuspended in Jurkat E6.1 growth media at a concentration of 75,000 cells/35 μL. 35 μL or 75,000 cells was seeded into Greiner microtitre assay plates. The plates were then incubated at 37° C. and 5% CO2 while other assay components were being prepared.
as §1
as §2, with “DMSO.” for “dimethyl sulfoxide (DMSO).”, “70” for “60”, “pipette.” for “pipette (Matrix Technologies Ltd).”
(§5) 2 μL (200×) of each diluted solution and each control (full activity: 100% DMSO alone or full inhibition 1 mM) was stamped into V-bottom polypropylene 384-well compound plates using either the Bravo, Janus, or 12.5 μL 16-channel Matrix multi-channel pipette. Each well with the 200× compound solution was diluted 1:20 by the addition of 38 μL Jurkat assay buffer+DMSO (9.5% DMSO, RPMI without phenol red, 0.09% FBS, 9 mM Hepes, and 0.9 mM Sodium Pyruvate equilibrated to r.t.)
Prepare 5× (500 μM) Boc-Lys(TFA)-AMC Substrate.
(§6) 5× (500 μM) substrate was prepared just prior to the addition to the assay. The 5× substrate was prepared by diluting a 100 mM Boc-Lys(TFA)-AMC in DMSO solution 1:200 by adding it drop-wise to Jurkat assay medium (RPMI without phenol red, 0.1% FBS, 10 mM Hepes, and 1 mM Sodium Pyruvate equilibrated to 37° C.) while vortexing at slow speed to prevent precipitation.
(§7) 10 mL of 3× lysis buffer was prepared with 8.8 mL of 3× stock lysis buffer (50 mM Tris-HCl, pH 8.0, 137 mM NaCl, 2.7 mM KCl, 1 mM MgCl2, 1% Nonidet P40 Substitute equilibrated to r.t.) and 1.2 mL of 3 mg/mL Trypsin equilibrated to r.t.
(§8) 5 μL of each solution of 1:20 diluted compound from above was transferred to the Greiner microtitre assay plates with 75,000 cells/well using the Bravo. Cells were then incubated for 2 hours at 37° C. and 5% CO2. The assay was then started by adding 10 μL of 5× (500 μM) substrate to the assay plate using either the Bravo or 16-channel Matrix multi-channel pipette. The cells were then incubated for 3 hours at 37° C. and 5% CO2. Next, 25 μL of 3× lysis buffer was added to each well using either the 125 μL 16 channel pipette or the Bravo. The assay plate was then incubated overnight (15-16 hours) at 37° C. and 5% CO2. The following day, the plates were shaken on an orbital shaker for 1 minute at 900 rpm. Finally the top read fluorescence (Excitation: 355 nm, Emission: 460 nm) was measured using PerkinElmer EnVision.

[3] = tested on: Cellular Class I HDAC activity; assay: Inhibition of cellular Class I HDAC activity; Cell (Lys-Ac) substrate, Jurkat E6-1 cells; format: cell-based; conditions: Boc-Lys(Ac)-AMC substrate
Excerpt: as §3, §4
as §2, with “DMSO.” for “dimethyl sulfoxide (DMSO).”, “70” for “60”, “pipette.” for “pipette (Matrix Technologies Ltd).”
as §5, §6, §7, §8
Example 30: Analysis of Inhibition of Cellular Class I HDAC Activity with Class IIa Histone Deacetylase (HDAC) Inhibitors; Cell (Lys-Ac) Substrate
The Class I HDAC activity of Class IIa Histone Deacetylase (HDAC) inhibitors was quantified by measuring the cellular histone deacetylase enzymatic activity using the fluorogenic substrate, Boc-Lys(Ac)-AMC. This was performed according to the procedure in Example 29, using Boc-Lys(Ac)-AMC substrate in place of Boc-Lys(TFA)-AMC.

Chain of human catalytic domain HDAC4 protein (amino acids 648-1032) (P56524 648-1032): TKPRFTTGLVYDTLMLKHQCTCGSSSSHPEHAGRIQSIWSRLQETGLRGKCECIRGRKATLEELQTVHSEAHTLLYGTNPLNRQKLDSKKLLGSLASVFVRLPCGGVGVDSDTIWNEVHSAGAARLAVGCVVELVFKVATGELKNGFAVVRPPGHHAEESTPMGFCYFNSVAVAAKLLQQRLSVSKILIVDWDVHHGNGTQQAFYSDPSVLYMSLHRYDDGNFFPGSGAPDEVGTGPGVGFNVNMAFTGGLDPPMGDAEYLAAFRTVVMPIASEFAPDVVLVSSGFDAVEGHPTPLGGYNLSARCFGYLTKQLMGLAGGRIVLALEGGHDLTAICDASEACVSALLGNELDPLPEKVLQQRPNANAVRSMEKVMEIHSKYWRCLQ

C[C@H](CN1CCC2(CC1)CC2)NC(=O)c1ccc(-c2noc(C(F)(F)F)n2)cc1 [Example 12, (R)—N-(1-(6-Azaspiro[2.5]octan-6-yl)propan-2-yl)-4-(5-(trifluoromethyl)-1,2,4-oxadiazol-3-yl)benzamide]
IC50 [1]: 30 nM
IC50 [2]: 58 nM
IC50 [3]: 4000 nM

C[C@H](CN1CCCCCC1)NC(=O)c1ccc(-c2noc(C(F)(F)F)n2)cc1 [Example 13, (R)—N-(1-(Azepan-1-yl)propan-2-yl)-4-(5-(trifluoromethyl)-1,2,4-oxadiazol-3-yl)benzamide]
IC50 [1]: 11 nM
IC50 [2]: 30 nM
IC50 [3]: 1700 nM

C[C@H](CN1CCC12CCC2)NC(=O)c1ccc(-c2noc(C(F)(F)F)n2)cc1 [Example 14, (R)—N-(1-(1-Azaspiro[3.3]heptan-1-yl)propan-2-yl)-4-(5-(trifluoromethyl)-1,2,4-oxadiazol-3-yl)benzamide]
IC50 [1]: 16 nM
IC50 [2]: 180 nM
IC50 [3]: 7700 nM

C[C@H](CN1CCC2(CC2)C1)NC(=O)c1ccc(-c2noc(C(F)(F)F)n2)cc1 [Example 15, (R)—N-(1-(5-Azaspiro[2.4]heptan-5-yl)propan-2-yl)-4-(5-(trifluoromethyl)-1,2,4-oxadiazol-3-yl)benzamide]
IC50 [1]: 8 nM
IC50 [2]: 69 nM
IC50 [3]: 5100 nM

C[C@H](CN1CC2CCC(C2)C1)NC(=O)c1ccc(-c2noc(C(F)(F)F)n2)cc1 [Example 16, N-((2R)-1-(3-Azabicyclo[3.2.1]octan-3-yl)propan-2-yl)-4-(5-(trifluoromethyl)-1,2,4-oxadiazol-3-yl)benzamide]
IC50 [1]: 7 nM
IC50 [2]: 12 nM
IC50 [3]: 890 nM

C[C@H](CN1CC2CCCC2C1)NC(=O)c1ccc(-c2noc(C(F)(F)F)n2)cc1 (stereo partly drawn) [Example 17, 2-((R)-2-(4-(5-(Trifluoromethyl)-1,2,4-oxadiazol-3-yl)benzamido)propyl)octahydrocyclopenta[c]pyrrol-2-ium formate]
IC50 [1]: 12 nM
IC50 [2]: 28 nM
IC50 [3]: 690 nM

C[C@H](CN1CCc2ccncc2C1)NC(=O)c1ccc(-c2noc(C(F)(F)F)n2)cc1 [Example 18, (R)—N-(1-(3,4-dihydro-2,7-naphthyridin-2(1H)-yl)propan-2-yl)-4-(5-(trifluoromethyl)-1,2,4-oxadiazol-3-yl)benzamide]
IC50 [1]: 6 nM
IC50 [2]: 190 nM
IC50 [3]: 12700 nM

C[C@H](CN1CC2CCC2C1)NC(=O)c1ccc(-c2noc(C(F)(F)F)n2)cc1 (stereo partly drawn) [Example 19, N-((2R)-1-(3-Azabicyclo[3.2.0]heptan-3-yl)propan-2-yl)-4-(5-(trifluoromethyl)-1,2,4-oxadiazol-3-yl)benzamide]
IC50 [1]: 4 nM
IC50 [2]: 9 nM
IC50 [3]: 1100 nM

C[C@H](CN1CC2C(C1)C2(C)C)NC(=O)c1ccc(-c2noc(C(F)(F)F)n2)cc1 (stereo partly drawn) [Example 22, N-((2R)-1-(6,6-Dimethyl-3-azabicyclo[3.1.0]hexan-3-yl)propan-2-yl)-4-(5-(trifluoromethyl)-1,2,4-oxadiazol-3-yl)benzamide]
IC50 [1]: 20 nM
IC50 [2]: 86 nM
IC50 [3]: 6100 nM

C[C@H](CN1CCC[C@@H]1C)NC(=O)c1ccc(-c2noc(C(F)(F)F)n2)c(F)c1 [Example 23, (2S)-1-((R)-2-(3-Fluoro-4-(5-(trifluoromethyl)-1,2,4-oxadiazol-3-yl)benzamido)propyl)-2-methylpyrrolidin-1-ium formate]
IC50 [1]: 9 nM
IC50 [2]: 72 nM
IC50 [3]: 21400 nM

C[C@H](CN1CCC[C@@H]1C)NC(=O)c1ccc(-c2noc(C(F)(F)F)n2)cn1 [Example 24, N—((R)-1-((S)-2-Methylpyrrolidin-1-yl)propan-2-yl)-5-(5-(trifluoromethyl)-1,2,4-oxadiazol-3-yl)picolinamide]
IC50 [1]: 134 nM
IC50 [2]: 1030 nM
IC50 [3]: 33700 nM
